Source: ChEMBL document CHEMBL5143510, “Structure modification and biological evaluation of indole-chalcone derivatives as anti-tumor agents through dual targeting tubulin and TrxR” (Eur J Med Chem, 2022)
Structures can show the parent of a compound that is named as a salt.

Key:
HeLa = assay: Antiproliferative activity against human HeLa cells assessed as reduction in cell viability incubated for 48 hrs by MTT assay; assay type: functional, cell-based
MHCC97H [1] = assay: Antiproliferative activity against human MHCC97H cells assessed as reduction in cell viability incubated for 48 hrs by MTT assay; assay type: functional, cell-based
A549 = assay: Antiproliferative activity against human A549 cells assessed as reduction in cell viability incubated for 48 hrs by MTT assay; assay type: functional, cell-based; details: A549, 48 h
A2780 = assay: Antiproliferative activity against human A2780 cells assessed as reduction in cell viability incubated for 48 hrs by MTT assay; assay type: functional, cell-based; details: A2780, 48 h
HCT-8 = assay: Antiproliferative activity against human HCT-8 cells assessed as reduction in cell viability incubated for 48 hrs by MTT assay; assay type: functional, cell-based; details: HCT-8, 48 h
MCF7 = assay: Antiproliferative activity against human MCF7 cells assessed as reduction in cell viability incubated for 48 hrs by MTT assay; assay type: functional, cell-based; details: MCF7, 48 h
MHCC97H [2] = assay: Antitumor activity against human MHCC97H cells xenografted in BALB/c mouse assessed as tumor volume at 30 mg/kg, ip administered every other day for 30 days; assay type: functional; details: time 30 day
MHCC97H [3] = assay: Antitumor activity against human MHCC97H cells xenografted in BALB/c mouse assessed as tumor weight at 30 mg/kg, ip administered every other day for 30 days; assay type: functional; details: time 30 day
MHCC97H [4] = assay: Antitumor activity against human MHCC97H cells xenografted in BALB/c mouse assessed as tumor growth inhibition at 30 mg/kg, ip administered every other day for 30 days; assay type: functional; details: 720 h, time 30 day, read-out: TGI
[5] = Antiproliferative activity against vincristine resistant human HCT-8/VCR cells assessed as reduction in cell viability incubated for 48 hrs by MTT assay; assay type: functional, cell-based
[6] = Resistance index, ratio of IC50 for antiproliferative activity against vincristine resistant human HCT-8/VCR cells to IC50 for antiproliferative activity against human HCT-8 cells; assay type: functional
[7] = Inhibition of TrxR in human MHCC97H cells using DTNB as substrate preincubated for 24 hrs in presence of NADPH followed by substrate addition by microplate reader analysis; assay type: cell-based
[8] = Inhibition of TrxR (unknown origin) using DTNB as substrate incubated for 5 mins in presence of NADPH followed by substrate addition by microplate reader analysis; design: species or system Homo sapiens
NCI/ADR-RES = assay: Antiproliferative activity against adriamycin resistant human MCF7/ADR cells assessed as reduction in cell viability incubated for 48 hrs by MTT assay; assay type: functional, cell-based
[9] = Resistance index, ratio of IC50 for antiproliferative activity against paclitaxel resistant human A2780/PTX cells to IC50 for antiproliferative activity against human A2780 cells; assay type: functional
[10] = Antiproliferative activity against paclitaxel resistant human A2780/PTX cells assessed as reduction in cell viability incubated for 48 hrs by MTT assay; assay type: functional, cell-based

Row | Structure (SMILES) | IC50 (HeLa) [nM] | IC50 (MHCC97H [1]) [nM] | IC50 (A549) [nM] | IC50 (A2780) [nM] | IC50 (HCT-8) [nM] | IC50 (MCF7) [nM] | further results
1 | COc1ccc2c(/C=C/C(=O)c3cc(OC)c(OC)c([Se]C)c3)c[nH]c2c1 | 104 | 58 | 67 | 65 | 78 | 83 | –
2 | O=c1c2ccccc2[se]n1CCn1[se]c2ccccc2c1=O | – | – | – | – | – | – | Activity (MHCC97H [2]): 832.6 mm3; Activity (MHCC97H [3]): 1.119 g; inhibition in vivo at 30 mg/kg (MHCC97H [4]): 51.7%
3 | CC[C@]1(O)C[C@H]2CN(CCc3c([nH]c4ccccc34)[C@@](C(=O)OC)(c3cc4c(cc3OC)N(C=O)[C@H]3[C@@](O)(C(=O)OC)[C@H](OC(C)=O)[C@]5(CC)C=CCN6CC[C@]43[C@@H]65)C2)C1 [VINCRISTINE] | – | – | – | – | 217 | – | IC50 [5]: 10200 nM; Ratio IC50 [6]: 47
4 | COc1ccc2c(/C=C/C(=O)c3cc(OC)c(OC)c([N+](=O)[O-])c3)cn(C)c2c1 | 951 | 562 | 1020 | 952 | 753 | 1520 | –
5 | COc1ccc2c(/C=C/C(=O)c3cc(OC)c(OC)c(SC)c3)c[nH]c2c1 | 131 | 112 | 115 | 139 | 138 | 101 | –
6 | COc1cc(C(=O)/C=C/c2c[nH]c3ccccc23)cc(N)c1OC | 529 | 263 | 342 | 351 | 577 | 595 | –
7 | COc1ccc2c(/C=C/C(=O)c3cc(N)c(OC)c(OC)c3)cn(C)c2c1 | 356 | 198 | 106 | 156 | 455 | 505 | –
8 | COc1cc(/C=C/C(=O)CC(=O)/C=C/c2ccc(O)c(OC)c2)ccc1O [CURCUMIN] | – | – | – | – | – | – | IC50 [7]: 28800 nM; IC50 [8]: 29000 nM
9 | COc1ccc2c(/C=C/C(=O)c3cc(N)c(OC)c(OC)c3)c[nH]c2c1 | 155 | 186 | 193 | 204 | 368 | 249 | –
10 | COc1ccc2c(/C=C/C(=O)c3cc(OC)c(OC)c(SC)c3)cn(C)c2c1 | 167 | 122 | 156 | 145 | 157 | 166 | –
11 | COc1ccc2c(/C=C/C(=O)c3cc(OC)c(OC)c([N+](=O)[O-])c3)c[nH]c2c1 | 850 | 289 | 331 | 742 | 982 | 662 | –
12 | COc1ccc(/C=C\c2cc(OC)c(OC)c(OC)c2)cc1OP(=O)(O)O [FOSBRETABULIN] | – | – | – | – | – | – | Activity (MHCC97H [2]): 1031.1 mm3; Activity (MHCC97H [3]): 0.888 g; inhibition in vivo at 30 mg/kg (MHCC97H [4]): 39.2%
13 | COc1ccc(/C=C\c2cc(OC)c(OC)c(OC)c2)cc1O [COMBRETASTATIN A4] | 16 | 8 | – | – | 23 | 29 | –
14 | COc1cc(C(=O)/C(C)=C/c2c[nH]c3ccccc23)cc([Se]C)c1OC | 34 | 18 | 12 | 25 | 32 | 59 | –
15 | COc1cc(C(=O)/C=C/c2cn(C)c3ccccc23)cc(SC)c1OC | 105 | 150 | 188 | 193 | 210 | 102 | –
16 | COc1cc(C(=O)/C=C/c2c[nH]c3ccccc23)cc([N+](=O)[O-])c1OC | 1350 | 830 | 1510 | 1280 | 1390 | 1290 | –
17 | COc1cc(C(=O)/C=C/c2cn(C)c3ccccc23)cc(N)c1OC | 668 | 289 | 498 | 441 | 605 | 631 | –
18 | COc1ccc2c(/C=C(\C)C(=O)c3cc(OC)c(OC)c([Se]C)c3)cn(C)c2c1 | 32 | 15 | 15 | 26 | 25 | 44 | –
19 | COc1cccc2c1C(=O)c1c(O)c3c(c(O)c1C2=O)C[C@@](O)(C(=O)CO)C[C@@H]3O[C@H]1C[C@H](N)[C@H](O)[C@H](C)O1 [DOXORUBICIN HYDROCHLORIDE] | – | – | – | – | – | – | IC50 (NCI/ADR-RES): 232000 nM
20 | COc1cc(C(=O)/C=C/c2c[nH]c3ccccc23)cc(SC)c1OC | 159 | 131 | 152 | 169 | 167 | 186 | –
21 | CC(=O)O[C@H]1C(=O)[C@@]2(C)[C@H]([C@H](OC(=O)c3ccccc3)[C@]3(O)C[C@H](OC(=O)[C@H](O)[C@@H](NC(=O)c4ccccc4)c4ccccc4)C(C)=C1C3(C)C)[C@]1(OC(C)=O)CO[C@@H]1C[C@@H]2O [PACLITAXEL] | – | – | – | 21 | – | – | Ratio IC50 [9]: 16.4; IC50 [10]: 344 nM
22 | COc1cc(C(=O)/C(C)=C/c2cn(C)c3ccccc23)cc([Se]C)c1OC | 63 | 26 | 18 | 35 | 48 | 77 | –
23 | COc1cc(C(=O)/C=C/c2cn(C)c3ccccc23)cc([N+](=O)[O-])c1OC | 1960 | 850 | 1060 | 1890 | 1660 | 1770 | –
